Molecules are shown by their SMILES.

One series concerns the target T1, B1 bradykinin receptor (Homo sapiens, UniProt P46663).
T1 sequence (P46663 whole entry): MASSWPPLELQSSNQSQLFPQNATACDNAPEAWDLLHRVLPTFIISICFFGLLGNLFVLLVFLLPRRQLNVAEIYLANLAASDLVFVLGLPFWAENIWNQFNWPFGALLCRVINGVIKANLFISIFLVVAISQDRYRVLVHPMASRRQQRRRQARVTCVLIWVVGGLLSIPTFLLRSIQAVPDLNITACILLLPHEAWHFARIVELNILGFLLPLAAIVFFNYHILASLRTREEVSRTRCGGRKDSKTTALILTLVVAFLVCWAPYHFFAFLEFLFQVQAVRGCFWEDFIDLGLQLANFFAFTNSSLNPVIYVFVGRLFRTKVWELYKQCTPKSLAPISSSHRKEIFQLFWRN
Description: Inhibitory constant against human Bradykinin receptor B1 expressed in chinese hamster ovary cells. The format is cell-based, CHO.

Series [1] is described as follows: Oral bioavailability in the Sprague Dawley rats; (n = 3). Type of series: ADME, organism-based. The conditions noted are these: rat, in vivo.
The nature of series [2]: Clearance in the Sprague Dawley rats; (n = 3). Type of series: ADME, organism-based. The conditions noted are these: rat, in vivo.
Series [3] is described as follows: Half life in the Sprague Dawley rats; (n = 3). The format is ADME. As to conditions: rat, in vivo.
The nature of series [4]: Half life in the Sprague Dawley rats; (n = 3); ND = not determined. The format is ADME. As to conditions: rat, in vivo.

Broadly, the Ki is a dissociation constant, usually derived from enzyme kinetics or from competition with a known ligand. Low readings indicate a stronger hold on the target, high ones a looser hold on the target. What is called bioavailability is dose-corrected exposure relative to a reference, in per cent. Low values mean poor availability, high ones good availability. By clearance is commonly meant the volume of plasma or blood freed of the substance per unit of time. A higher clearance goes with efficient removal. By half-life is commonly meant the time in which the quantity being followed falls by half. Read a high half-life as slow decline. As to `Cc1ccnc(NCc2ccc(-c3ccccc3C(=O)O)cc2)c1NC(=O)CC#N`, the Ki on B1 bradykinin receptor was determined as 11.5 nM. Besides, the bioavailability in series [1] was 19%. In series [2], this compound returned a clearance of 4.3 mL/min/kg. Further, the half-life in series [3] is 120 min.

Compound `CCC(=O)Nc1cccnc1NCc1ccc(-c2ccccc2C(=O)OC)cc1` returned a Ki at B1 bradykinin receptor of 119 nM.

`COCC(=O)Nc1cccnc1NCc1ccc(-c2ccccc2C(=O)OC)cc1`: the Ki on B1 bradykinin receptor was determined as 390 nM.

In turn, `CCCC(=O)Nc1cccnc1NCc1ccc(-c2ccccc2C(=O)OC)cc1` displayed a Ki at B1 bradykinin receptor of 88 nM. This compound returned a bioavailability in series [1] of 15%. Also, in series [2], the clearance amounted to 23 mL/min/kg. In series [3], this compound gave a half-life of 24 min.

On to `COC(=O)c1ccccc1-c1ccc(CNc2ncccc2NC(=O)CC(F)(F)F)cc1`, for which the half-life in series [4] is 12 min. The bioavailability in series [1] is 9%. This compound yielded a clearance in series [2] of 35 mL/min/kg.

For `CNC(=O)c1ccccc1-c1ccc([C@@H](C)Nc2nccc(C)c2NC(=O)CC(F)(F)F)cc1`, the Ki at B1 bradykinin receptor was 6 nM. Besides, the bioavailability in series [1] came out at 25%. Also, in series [2], the clearance was 31 mL/min/kg. The half-life in series [3] was 30 min.

Take `CNC(=O)c1ccccc1-c1ccc(CNc2nccc(C)c2NC(=O)CC(F)(F)F)cc1`: the Ki on B1 bradykinin receptor came out at 11 nM. For the same compound, in series [1], the bioavailability is 79%. The compound further showed a clearance in series [2] of 30 mL/min/kg. In addition, in series [3], the half-life was 60 min.

For `COC(=O)c1ccccc1-c1ccc(CNc2ncccc2NC(=O)CC#N)cc1`, the Ki at B1 bradykinin receptor stood at 11 nM. The compound further returned a bioavailability in series [1] of 28%. This compound gave a clearance in series [2] of 18 mL/min/kg. In addition, the half-life in series [3] is 48 min.

The compound `CCCCC(=O)Nc1cccnc1NCc1ccc(-c2ccccc2C(=O)OC)cc1` yielded a bioavailability in series [1] of 2%. The clearance in series [2] was found to be 30 mL/min/kg. The same compound had a half-life in series [3] of 12 min.

The compound `COC(=O)c1ccccc1-c1ccc(CNc2nccc(C)c2NC(=O)CC(F)(F)F)cc1` yielded a Ki at B1 bradykinin receptor of 7.1 nM. In addition, in series [1], the bioavailability was found to be 40%. In series [2], this compound gave a clearance of 14 mL/min/kg. Further, in series [3], the half-life is 24 min.

Compound `COC(=O)c1ccccc1-c1ccc([C@@H](C)Nc2nccc(C)c2NC(=O)CC(F)(F)F)cc1` gave a Ki on B1 bradykinin receptor of 1.8 nM. Also, the bioavailability in series [1] amounted to 17%. In addition, the clearance in series [2] worked out at 8 mL/min/kg. This compound had a half-life in series [3] of 54 min.

In turn, `COC(=O)c1ccccc1-c1ccc([C@@H](C)Nc2nccc(C)c2NC(=O)CC#N)cc1` registered a Ki at B1 bradykinin receptor of 2.6 nM. In series [1], the bioavailability was found to be 27%. Moreover, in series [2], the clearance amounted to 18.5 mL/min/kg. Moreover, the half-life in series [3] is 12 min.

`CNC(=O)c1ccccc1-c1ccc(CNc2ncccc2NC(=O)CC(F)(F)F)cc1` gave a Ki at B1 bradykinin receptor of 33 nM. The same compound had a bioavailability in series [1] of 95%. The clearance in series [2] came to 15 mL/min/kg. The compound also gave a half-life in series [3] of 18 min.

The compound `COC(=O)c1ccccc1-c1ccc(CNc2ncccc2NC(=O)CS(C)(=O)=O)cc1` had a Ki on B1 bradykinin receptor of 40 nM.

As to `COC(=O)c1ccccc1-c1ccc(CNc2ncccc2NC(=O)CN(C)C)cc1`, at B1 bradykinin receptor, the Ki came to 1280 nM. This Ki lies about 32-fold higher than the previous one.

For the compound `COC(=O)c1ccccc1-c1ccc(CNc2ncccc2NC(=O)C(C)C)cc1`, on B1 bradykinin receptor, the Ki turned out to be 230 nM.

The record behind these values is ChEMBL document CHEMBL1144392, “2,3-Diaminopyridine as a platform for designing structurally unique nonpeptide bradykinin B1 receptor antagonists” (Bioorg Med Chem Lett, 2005).
